Measured values from ChEMBL document CHEMBL5728971, “Small molecule inhibitors of lactate dehydrogenase and methods of use thereof” (2022).

Experiment: Biochemical Assay: Test compounds were placed in a Greiner Bio-One (Monroe, N.C.) 1536-well black solid bottom assay plate. 200 millimolar (mM) Tris HCl, pH 7.4, 100 micromolar (μM) EDTA and 0.01% TWEEN-20™, final concentration, was used as the assay buffer. The LDHA reagent was 2 nanomolar (nM) Human LDHA (Meridian Life Science, Inc., Memphis, Tenn.), final concentration, in assay buffer.

Compound	IC50
C=C(C)c1cc(-c2nn(-c3nc(C(=O)O)cs3)c(CC3CC3)c2Cc2ccc(S(N)(=O)=O)c(F)c2)ccc1F	< 100 nM
NS(=O)(=O)c1ccc(Cc2c(CC3CC3)nn(-c3nc(C(=O)O)cs3)c2-c2ccc(F)c(-c3ccc(C4CC4)cc3)c2)cc1	in the range around 29000 nM
NS(=O)(=O)c1ccc(Cc2c(-c3ccc(F)c(-c4ccc(F)cc4)c3)nn(-c3nc(C(=O)O)cs3)c2CC2CC2)c(F)c1	< 100 nM
Cc1noc(C)c1-c1cc(-c2nn(-c3nc(C(=O)O)cs3)c(CC3CC3)c2Cc2ccc(S(N)(=O)=O)c(F)c2)ccc1F	< 100 nM
Cc1ccc(-c2cc(-c3c(Cc4ccc(S(N)(=O)=O)c(F)c4)c(CC4CC4)nn3-c3nc(C(=O)O)cs3)ccc2F)s1	> 57000 nM
NS(=O)(=O)c1ccc(Cc2c(CC3CC3)nn(-c3nc(C(=O)O)cs3)c2-c2ccc(C(O)(C3CC3)C(F)(F)F)cc2)cc1F (stereo not given)	in the range around 29000 nM
CCOC(=O)c1csc(-n2nc(CC3CC3)c(Cc3ccc(S(N)(=O)=O)c(F)c3)c2-c2ccc(F)c(-c3cccc(OC)c3)c2)n1	> 57000 nM
CCC(C)(C)c1cc(-c2nn(-c3nc(C(=O)O)cs3)c(CC3CC3)c2Cc2ccc(S(N)(=O)=O)c(F)c2)ccc1F	< 100 nM
NS(=O)(=O)c1ccc(Cc2cn(-c3nc(Br)cs3)nc2-c2ccccc2)cc1	in the range around 29000 nM
NS(=O)(=O)c1ccc(Cc2c(-c3cccc(S(F)(F)(F)(F)F)c3)nn(-c3nc(C(=O)O)cs3)c2CC2CC2)cc1F	< 100 nM
Cc1ccc(-c2cc(-c3c(Cc4ccc(S(N)(=O)=O)cc4F)c(CC4CC4)nn3-c3nc(C(=O)O)cs3)ccc2F)s1	> 57000 nM
Cc1ncc(-c2cc(-c3nn(-c4nc(C(=O)O)cs4)c(CC4CC4)c3Cc3ccc(S(N)(=O)=O)c(F)c3)ccc2F)s1	< 100 nM
NS(=O)(=O)c1ccc(Cc2c(-c3cccc(-c4ccccc4)c3)nn(-c3nc(C(=O)O)cs3)c2C2(C(F)(F)F)CC2)cc1	in the range around 29000 nM
NS(=O)(=O)c1ccc(Oc2c(-c3ccccc3)nn(-c3nc(C(=O)O)cs3)c2C2CC2)cc1	< 100 nM
NS(=O)(=O)c1cccc(Cc2c(-c3ccc(F)c(-c4cccc(F)c4)c3)nn(-c3nc(C(=O)O)cs3)c2CC2CC2)c1	in the range around 29000 nM
NS(=O)(=O)c1ccc(Cc2c(-c3cccc(OC4CCCC4)c3)nn(-c3nc(C(=O)O)cs3)c2CC2CC2)c(F)c1	< 100 nM
NS(=O)(=O)c1ccc(Cc2c(-c3ccc(F)c(C(F)(F)F)c3)nn(-c3nc(C(=O)O)cs3)c2CC2CC2)cc1F	< 100 nM
CCOC(=O)c1csc(-n2nc(-c3cccc(-c4ccc(C)cc4)c3)c(Cc3ccc(S(N)(=O)=O)cc3F)c2CC2CC2)n1	> 57000 nM
Cc1ccc(-c2cccc(-c3c(Cc4ccc(S(N)(=O)=O)cc4F)c(C4CC4)nn3-c3nc(C(=O)O)cs3)c2)cc1	in the range around 29000 nM
CCOC(=O)c1csc(-n2nc(-c3cccc(OC4CCCC4)c3)c(Cc3ccc(S(N)(=O)=O)c(F)c3)c2CC2CC2)n1	in the range around 29000 nM
Cc1csc(-c2cc(-c3c(Cc4ccc(S(N)(=O)=O)cc4F)c(CC4CC4)nn3-c3nc(C(=O)O)cs3)ccc2F)c1	> 57000 nM
NS(=O)(=O)c1ccc(Cc2c(-c3ccc(F)c(-c4ccc(F)cc4)c3)nn(-c3nc(C(=O)O)cs3)c2C(F)(F)F)cc1	< 100 nM
NS(=O)(=O)c1ccc(Cc2c(-c3ccc(F)c(C#CCN4CCOCC4)c3)nn(-c3nc(C(=O)O)cs3)c2CC2CC2)cc1F	< 100 nM
CCOC(=O)c1csc(-n2nc(-c3ccccc3)c(Oc3ccc(S(N)(=O)=O)cc3)c2C2CCCCC2)n1	> 57000 nM

Compound	IC50
NS(=O)(=O)c1ccc(Cc2c(-c3ccccc3)nn(-c3nc(C(=O)O)cs3)c2-c2ccccc2)cc1	< 100 nM
Cc1ccc(-c2cc(-c3nn(-c4nc(C(=O)O)cs4)c(CC4CC4)c3Cc3ccc(S(N)(=O)=O)c(F)c3)ccc2F)cc1	< 100 nM
NS(=O)(=O)c1ccc(Cc2c(CC(F)(F)F)nn(-c3nc(C(=O)O)cs3)c2-c2cccc(-c3ccccc3)c2)cc1	in the range around 29000 nM
C/C=C/c1cc(-c2nn(-c3nc(C(=O)O)cs3)c(CC3CC3)c2Cc2ccc(S(N)(=O)=O)c(F)c2)ccc1F	< 100 nM
NS(=O)(=O)c1ccc(Cc2c(-c3cccc(N4CCC(F)(F)CC4)c3)nn(-c3nc(C(=O)O)cs3)c2CC2CC2)cc1F	< 100 nM
CC(C)(C)C#Cc1cc(-c2nn(-c3nc(C(=O)O)cs3)c(CC3CC3)c2Cc2ccc(S(N)(=O)=O)c(F)c2)ccc1F	< 100 nM
CCOC(=O)c1csc(-n2nc(-c3ccc(F)c(C#CC4CCCC4)c3)c(Cc3cccc(S(N)(=O)=O)c3)c2CC2CC2)n1	> 57000 nM
NS(=O)(=O)c1ccc(Cc2c(-c3ccc(F)c(Br)c3)nn(-c3nc(C(=O)O)cs3)c2CC2CC2)cc1	< 100 nM
CC(C)(C)Cc1cc(-c2nn(-c3nc(C(=O)O)cs3)c(CC3CC3)c2Cc2ccc(S(N)(=O)=O)c(F)c2)ccc1F	< 100 nM
NS(=O)(=O)c1ccc(Cc2c(-c3cccc(N4CCC(F)(F)C4)c3)nn(-c3nc(C(=O)O)cs3)c2CC2CC2)cc1F	in the range around 29000 nM
NS(=O)(=O)c1ccc(Cc2c(-c3cccc(-c4cccc(F)c4)c3)nn(-c3nc(C(=O)O)cs3)c2CC2CC2)cc1	< 100 nM
CC#Cc1cc(-c2nn(-c3nc(C(=O)OCC)cs3)c(CC3CC3)c2Cc2ccc(S(N)(=O)=O)c(F)c2)ccc1F	in the range around 29000 nM
COc1cccc(-c2cccc(-c3nn(-c4nc(C(=O)O)cs4)c(C4CC4)c3Cc3ccc(S(N)(=O)=O)cc3F)c2)c1	< 100 nM
NS(=O)(=O)c1ccc(Cc2c(-c3cccc(C4CCCC4)c3)nn(-c3nc(C(=O)O)cs3)c2CC2CC2)cc1	< 100 nM
CCOC(=O)c1csc(-n2nc(-c3ccc(F)c(-c4ccc(C)cc4)c3)c(Cc3ccc(S(N)(=O)=O)c(F)c3)c2C2CC2)n1	in the range around 29000 nM
Cc1ccc(-c2cc(-c3nn(-c4nc(C(=O)O)cs4)c(CC4CC4)c3Cc3ccc(S(N)(=O)=O)cc3F)ccc2F)s1	< 100 nM
NS(=O)(=O)c1ccc(Cc2c(-c3cccc(N4CCC(C(F)(F)F)CC4)c3)nn(-c3nc(C(=O)O)cs3)c2CC2CC2)cc1F	< 100 nM
CCOC(=O)c1csc(-n2nc(-c3ccccc3)c(Cc3ccc(S(N)(=O)=O)cc3)c2C2CC2)n1	> 57000 nM
Cc1ccc(-c2cc(-c3nn(-c4nc(C(=O)O)cs4)c(CC4CC4)c3Cc3ccc(S(N)(=O)=O)c(Cl)c3)ccc2F)s1	< 100 nM
NS(=O)(=O)c1ccc(Cc2c(C3CC3)nn(-c3nc(C(=O)O)cs3)c2-c2cccc(-c3ccc(F)cc3)c2)cc1F	in the range around 29000 nM
NS(=O)(=O)c1ccc(Cc2c(-c3ccc(F)c(C4CCC4)c3)nn(-c3nc(C(=O)O)cs3)c2CC2CC2)cc1F	< 100 nM
COc1cccc(-c2cc(-c3nn(-c4nc(C(=O)O)cs4)c(CC4CC4)c3Cc3ccc(S(N)(=O)=O)cc3)ccc2F)c1	< 100 nM
CC(C)c1ccc(-c2cc(-c3c(Cc4ccc(S(N)(=O)=O)cc4)c(CC4CC4)nn3-c3nc(C(=O)O)cs3)ccc2F)cc1	in the range around 29000 nM
NS(=O)(=O)c1ccc(Cc2c(-c3ccc(F)c(C#CC4=CCCC4)c3)nn(-c3nc(C(=O)O)cs3)c2CC2CC2)cc1F	< 100 nM

Compound	IC50
CC(C)c1cc(-c2nn(-c3nc(C(=O)O)cs3)c(CC3CC3)c2Cc2ccc(S(N)(=O)=O)c(F)c2)ccc1F	< 100 nM
CS(=O)(=O)c1ccc(Cc2c(-c3ccc(F)c(C#CCC4CCCO4)c3)nn(-c3nc(C(=O)O)cs3)c2CC2CC2)cc1F (stereo not given)	< 100 nM
CC(C)=Cc1cc(-c2nn(-c3nc(C(=O)O)cs3)c(CC3CC3)c2Cc2ccc([SH+](N)[O-])c(F)c2)ccc1F (stereo not given)	< 100 nM
Cc1ccc(-c2cc(-c3nn(-c4nc(C(=O)O)cs4)c(CC4CC4)c3Cc3ccc(S(N)(=O)=O)c(F)c3)ccc2F)s1	< 100 nM
O=C(O)c1csc(-n2nc(-c3ccc(Cl)cc3)cc2C(F)(F)F)n1	in the range around 29000 nM
COc1cccc(-c2cc(-c3c(Cc4ccc(S(N)(=O)=O)cc4F)c(CC4CC4)nn3-c3nc(C(=O)O)cs3)ccc2F)c1	in the range around 29000 nM
N#Cc1c(Cc2ccc(S(N)(=O)=O)cc2)c(-c2ccccc2)nn1-c1nc(C(=O)O)cs1	< 100 nM
CCOC(=O)c1csc(-n2nc(-c3ccc(F)c(C#Cc4ccc(C)s4)c3)c(Cc3ccc(S(N)(=O)=O)c(F)c3)c2CC2CC2)n1	> 57000 nM
CCOC(=O)c1csc(-n2nc(-c3ccc(F)c(-c4cccc(OC)c4)c3)c(Cc3ccc(S(N)(=O)=O)c(F)c3)c2CC2CC2)n1	in the range around 29000 nM
CCOC(=O)c1csc(-n2nc(-c3cccc(C#CC4CCCC4)c3)c(Cc3ccc(S(N)(=O)=O)c(F)c3)c2CC2CC2)n1	> 57000 nM
CCOC(=O)c1csc(-n2nc(-c3ccc(F)c(C#CC4CC4)c3)c(Cc3ccc(S(N)(=O)=O)cc3)c2CC2CC2)n1	in the range around 29000 nM
NS(=O)(=O)c1ccc(Cc2c(-c3ccc(F)c(/C=C/C4CCCC4)c3)nn(-c3nc(C(=O)O)cs3)c2CC2CC2)cc1F	< 100 nM
NS(=O)(=O)c1ccc(Cc2c(-c3cccc(-c4ccccc4)c3)nn(-c3nc(C(=O)O)cs3)c2C2(C(F)(F)F)CC2)cc1F	in the range around 29000 nM
Cn1cc(-c2cc(-c3nn(-c4nc(C(=O)O)cs4)c(CC4CC4)c3Cc3ccc(S(N)(=O)=O)c(F)c3)ccc2F)cn1	< 100 nM
NS(=O)(=O)c1ccc(Cc2c(-c3cccc(OCc4ccccc4)c3)nn(-c3nc(C(=O)O)cs3)c2CC2CC2)cc1	< 100 nM
NS(=O)(=O)c1ccc(Cc2c(-c3cccc(C(O)(C4CC4)C(F)(F)F)c3)nn(-c3nc(C(=O)O)cs3)c2CC2CC2)cc1F (stereo not given)	< 100 nM
O=C(O)c1csc(-n2nc(-c3cccc(-c4ccccc4F)c3)cc2O)n1	> 57000 nM
NS(=O)(=O)c1ccc(Cc2c(-c3ccc(F)c(-c4cccc(F)c4)c3)nn(-c3nc(C(=O)O)cs3)c2C2CC2)c(F)c1	< 100 nM
O=C(O)c1csc(-n2nc(-c3ccc(F)c(F)c3)c(Cc3ccccc3)c2O)n1	> 57000 nM
NS(=O)(=O)c1ccc(Cc2c(-c3ccc(F)c(C#CC4CC4)c3)nn(-c3nc(C(=O)O)cs3)c2CC2CC2)cc1F	< 100 nM
Cc1ccc(-c2cccc(-c3c(Cc4ccc(S(N)(=O)=O)cc4)c(CC4CC4)nn3-c3nc(C(=O)O)cs3)c2)cc1	in the range around 29000 nM
NS(=O)(=O)c1ccc(Cc2c(-c3ccc(F)c(C4=CCCC4)c3)nn(-c3nc(C(=O)O)cs3)c2CC2CC2)cc1F	< 100 nM
